According to patent US8609666B2, “2-morpholino-pyrido[3,2-D]pyrimidines” (Merck Serono SA, priority 2009, dated 2013):

Each molecule was assayed on Human recombinant GST-PI3K (assay: PI3K induced-lipid phosphorylation scintillation proximity assay (neomycin-coated SPA beads)). Details: amount necessary to achieve 50% inhibition of PI3K; 120 min at room temperature.
Type: biochemical
Source text: The efficacy of compounds of the invention in inhibiting the PI3K induced-lipid phosphorylation may be tested in the following binding assay. The assay combines the scintillation proximity assay technology (SPA, Amersham) with the capacity of neomycin (a polycationic antibiotic) to bind phospholipids with high affinity and specificity. The Scintillation Proximity Assay is based on the properties of weakly emitting isotopes (such as ^3H, ^125I, ^33P). Coating SPA beads with neomycin allows the detection of phosphorylated lipid substrates after incubation with recombinant PI3K and radioactive ATP in the same well, by capturing the radioactive phospholipids to the SPA beads through their specific binding to neomycin. To a 96 wells MTP containing 10 μl of the test compound of Formula (I) (solubilized in 10% DMSO; to yield a concentration of 100, 25, 5.0, 1.25, 0.312, 0.078, 0.0195, 0.00488, 0.00122 and 0.0003 μM of the test compound), the following assay components are added: 1) 10 μL of lipid micelles 2) […] of Kinase buffer ([^33P]γATP162 μM/300 nCi, MgCl2 2.5 mM, DTT 2.5 mM, Na3VO4 25 μM in Hepes 40 mM, pH 7.4) and 3) 10 μL (100 ng) of Human recombinant GST-PI3K (in Hepes 40 mM, pH 7.4, ethylenglycol 4%). After incubation at room temperature for 120 minutes, with gentle agitation, the reaction is stopped by addition of 200 μL of a solution containing 250 μg of neomycin-coated PVT SPA beads, ATP 60 mM and EDTA 6.2 mM in PBS. The assay is further incubated at room temperature for 60 minutes with gentle agitation to allow binding of phospholipids to neomycin-SPA beads. After precipitation of the neomycin-coated PVT SPA beads for 5 minutes at 1500×g, radioactive PtdIns(3)P is quantified by scintillation counting in a Wallac MicroBeta™ plate counter. The values indicated in Table I below refer to the IC50 (μM) with respect to PI3K, i.e. the amount necessary to achieve 50% inhibition of said target. Said values show a considerable inhibitory potency of pyridopyrimidine compounds with regard to PI3K.

| SMILES | IC50 [nM] |
| --- | --- |
| COCc1cccc(-c2nc(N3CCOCC3)nc3c(N(C)C)cc(C(=O)O)nc23)c1 [Example 25, 8-Dimethylamino-4-(3-methoxymethyl-phenyl)-2-morpholin-4-yl-pyrido[3,2-d]pyrimidine-6-carboxylic acid] | 5050 |
| COCCN(C)c1cc(C(=O)O)nc2c(-c3ccc4[nH]ccc4c3)nc(N3CCOCC3)nc12 [Example 21, 4-(1H-Indol-5-yl)-8-[(2-methoxy-ethyl)-methyl-amino]-2-morpholin-4-yl-pyrido[3,2-d]pyrimidine-6-carboxylic acid] | 169 |
| COc1cccc(-c2nc(N3CCOCC3)nc3c(Cl)cc(C(=O)O)nc23)c1 [Example 1, 8-Chloro-4-(3-methoxyphenyl)-2-morpholin-4-ylpyrido[3,2-d]pyrimidine-6-carboxylic acid] | 1080 |
| O=C(O)c1ccc2nc(N3CCOCC3)nc(-c3ccc(O)cc3)c2n1 [Example 8, 4-(4-Hydroxy-phenyl)-2-morpholin-4-yl-pyrido[3,2-d]pyrimidine-6-carboxylic acid] | 855 |
| COCCN(C)c1cc(C(=O)O)nc2c(-c3cc(F)cc(F)c3)nc(N3CCOCC3)nc12 [Example 65, 4-(3,5-Difluorophenyl)-8-[(2-methoxyethyl)(methyl)amino]-2-morpholin-4-ylpyrido[3,2-d]pyrimidine-6-carboxylic acid] | 1290 |
| COCCOc1cc(C(=O)O)nc2c(-c3cccc(O)c3)nc(N3CCOCC3)nc12 [Example 11, 4-(3-Hydroxy-phenyl)-8-(2-methoxy-ethoxy)-2-morpholin-4-yl-pyrido[3,2-d]pyrimidine-6-carboxylic acid] | 255 |
| CN(C)c1cc(C(=O)O)nc2c(-c3ccc(O)cc3)nc(N3CCOCC3)nc12 [Example 4, 8-Dimethylamino-4-(4-hydroxy-phenyl)-2-morpholin-4-yl-pyrido[3,2-d]pyrimidine-6-carboxylic acid] | 350 |
| COCCN(C)c1cc(C(=O)O)nc2c(-c3cccc(CO)c3)nc(N3CCOCC3)nc12 [Example 47, 4-[3-(Hydroxymethyl)phenyl]-8-[(2-methoxyethyl)(methyl)amino]-2-morpholin-4-ylpyrido[3,2-d]pyrimidine-6-carboxylic acid] | 8 |
| CN(C)c1cc(C(=O)O)nc2c(-c3cccc(C#N)c3)nc(N3CCOCC3)nc12 [Example 66, 4-(3-Cyanophenyl)-8-(dimethylamino)-2-morpholin-4-ylpyrido[3,2-d]pyrimidine-6-carboxylic acid] | 1100 |
| CN(CCO)c1cc(C(=O)O)nc2c(-c3ccc(F)c(CO)c3)nc(N3CCOCC3)nc12 [Example 50, 4-[4-Fluoro-3-(hydroxymethyl)phenyl]-8-[(2-hydroxyethyl)(methyl)amino]-2-morpholin-4-ylpyrido[3,2-d]pyrimidine-6-carboxylic acid] | 303 |
| COCCN(C)c1cc(C(=O)O)nc2c(-c3cc(O)cc(F)c3)nc(N3CCOCC3)nc12 [Example 14, 4-(3-Fluoro-5-hydroxy-phenyl)-8-[(2-methoxy-ethyl)-methyl-amino]-2-morpholin-4-yl-pyrido[3,2-d]pyrimidine-6-carboxylic acid] | 19 |
| CC(=O)N1CCN(c2cc(C(=O)O)nc3c(-c4cccc(O)c4)nc(N4CCOCC4)nc23)CC1 [Example 60, 8-(4-Acetylpiperazin-1-yl)-4-(3-hydroxyphenyl)-2-morpholin-4-ylpyrido[3,2-d]pyrimidine-6-carboxylic acid] | 80 |
| CN(C)CCN(C)c1cc(C(=O)O)nc2c(-c3cc(F)ccc3O)nc(N3CCOCC3)nc12 [Example 32, 8-[[2-(Dimethylamino)ethyl](methyl)amino]-4-(5-fluoro-2-hydroxyphenyl)-2-morpholin-4-ylpyrido[3,2-d]pyrimidine-6-carboxylic acid] | 564 |
| COCCOc1cc(C(=O)O)nc2c(-c3cc(O)cc(F)c3)nc(N3CCOCC3)nc12 [Example 15, 4-(3-Fluoro-5-hydroxy-phenyl)-8-(2-methoxy-ethoxy)-2-morpholin-4-yl-pyrido[3,2-d]pyrimidine-6-carboxylic acid] | 93 |
| COCCN(C)c1cc(C(=O)O)nc2c(-c3cccc(O)c3)nc(N3CCOCC3)nc12 [Example 10, 4-(3-Hydroxy-phenyl)-8-[(2-methoxy-ethyl)-methyl-amino]-2-morpholin-4-yl-pyrido[3,2-d]pyrimidine-6-carboxylic acid] | 28 |

Results, then the molecule that gave them:

| IC50 [nM] | SMILES |
| --- | --- |
| 82 | O=C(O)c1cc(NCCO)c2nc(N3CCOCC3)nc(-c3ccccc3O)c2n1 [Example 44, 8-[(2-Hydroxyethyl)amino]-4-(2-hydroxyphenyl)-2-morpholin-4-ylpyrido[3,2-d]pyrimidine-6-carboxylic acid] |
| 139 | CS(=O)(=O)c1cc(C(=O)O)nc2c(-c3cc(F)ccc3O)nc(N3CCOCC3)nc12 [Example 55, 4-(5-Fluoro-2-hydroxyphenyl)-8-(methylsulfonyl)-2-morpholin-4-ylpyrido[3,2-d]pyrimidine-6-carboxylic acid] |
| 27 | O=C(O)c1cc(NCCO)c2nc(N3CCOCC3)nc(-c3cccc(CO)c3)c2n1 [Example 48, 8-[(2-Hydroxyethyl)amino]-4-[3-(hydroxymethyl)phenyl]-2-morpholin-4-ylpyrido[3,2-d]pyrimidine-6-carboxylic acid] |
| 23 | CN(C)c1cc(C(=O)O)nc2c(-c3ccccc3O)nc(N3CCOCC3)nc12 [Example 42, 8-(Dimethylamino)-4-(2-hydroxyphenyl)-2-morpholin-4-ylpyrido[3,2-d]pyrimidine-6-carboxylic acid] |
| 64 | O=C(O)c1cc(NCCO)c2nc(N3CCOCC3)nc(-c3cc(O)cc(F)c3)c2n1 [Example 16, 4-(3-Fluoro-5-hydroxy-phenyl)-8-(2-hydroxy-ethylamino)-2-morpholin-4-yl-pyrido[3,2-d]pyrimidine-6-carboxylic acid] |
| 1830 | COCCNc1cc(C(=O)O)nc2c(-c3cccc(COC)c3)nc(N3CCOCC3)nc12 [Example 26, 8-(2-Methoxy-ethylamino)-4-(3-methoxymethyl-phenyl)-2-morpholin-4-yl-pyrido[3,2-d]pyrimidine-6-carboxylic acid] |
| 412 | CNc1cc(C(=O)O)nc2c(-c3ccc(F)cc3O)nc(N3CCOCC3)nc12 [Example 53, 4-(4-Fluoro-2-hydroxyphenyl)-8-(methylamino)-2-morpholin-4-ylpyrido[3,2-d]pyrimidine-6-carboxylic acid] |
| 504 | COCCNc1cc(C(=O)O)nc2c(-c3ccc(O)cc3)nc(N3CCOCC3)nc12 [Example 5, 4-(4-Hydroxy-phenyl)-8-(2-methoxy-ethylamino)-2-morpholin-4-yl-pyrido[3,2-d]pyrimidine-6-carboxylic acid] |
| 225 | Cc1cc(C(=O)O)nc2c(-c3cccc(O)c3)nc(N3CCOCC3)nc12 [Example 62, 4-(3-Hydroxyphenyl)-8-methyl-2-morpholin-4-ylpyrido[3,2-d]pyrimidine-6-carboxylic acid] |
| 74 | CN(CCO)c1cc(C(=O)O)nc2c(-c3cccc(CO)c3)nc(N3CCOCC3)nc12 [Example 24, 8-[(2-Hydroxy-ethyl)-methyl-amino]-4-(3-hydroxymethyl-phenyl)-2-morpholin-4-yl-pyrido[3,2-d]pyrimidine-6-carboxylic acid] |
| 66 | CN(C)c1cc(C(=O)O)nc2c(-c3cc(F)ccc3O)nc(N3CCOCC3)nc12 [Example 29, 8-(Dimethylamino)-4-(5-fluoro-2-hydroxyphenyl)-2-morpholin-4-ylpyrido[3,2-d]pyrimidine-6-carboxylic acid] |
| 10 | CN(CCO)c1cc(C(=O)O)nc2c(-c3cccc(F)c3O)nc(N3CCOCC3)nc12 [Example 37, 4-(3-Fluoro-2-hydroxyphenyl)-8-[(2-hydroxyethyl)(methyl)amino]-2-morpholin-4-ylpyrido[3,2-d]pyrimidine-6-carboxylic acid] |
| 304 | CNc1cc(C(=O)O)nc2c(-c3cc(F)ccc3O)nc(N3CCOCC3)nc12 [Example 30, 4-(5-Fluoro-2-hydroxyphenyl)-8-(methylamino)-2-morpholin-4-ylpyrido[3,2-d]pyrimidine-6-carboxylic acid] |
| 75 | O=C(O)c1cc(NCCO)c2nc(N3CCOCC3)nc(-c3cccc(O)c3)c2n1 [Example 12, 8-(2-Hydroxy-ethylamino)-4-(3-hydroxy-phenyl)-2-morpholin-4-yl-pyrido[3,2-d]pyrimidine-6-carboxylic acid] |
| 26 | CS(=O)(=O)c1cc(C(=O)O)nc2c(-c3cccc(F)c3O)nc(N3CCOCC3)nc12 [Example 39] |
| 83 | CN(C)c1cc(C(=O)O)nc2c(-c3ccc(F)cc3O)nc(N3CCOCC3)nc12 [Example 52, 8-(Dimethylamino)-4-(4-fluoro-2-hydroxyphenyl)-2-morpholin-4-ylpyrido[3,2-d]pyrimidine-6-carboxylic acid] |
